biological target: LAT1 (Homo sapiens (Human), UniProt Q01650); assay: LAT1 uptake inhibition assay: [3H]-gabapentin competition uptake in LN229 cells; assay type: cell-based; conditions: [3H]-gabapentin uptake, 15 min incubation in PBS, read-out: IC50, the concentration of test compound at which the [3H]-GP uptake was inhibited by 50%
Method: LAT1 Uptake Inhibition Assay
The ability of compounds to interact with LAT1 was measured using a radiolabeled competition uptake assay with [^3H]-Gabapentin ([^3H]-GP) (Perkin Elmer) in 96-well plates with LN229 cells (ATCC®). Ten (10)×10^3 (10,000) cells/well were plated in white, clear bottom plates and were allowed to grow for three (3) days. On the fourth day, the cells were washed and then incubated with 50,000 counts per minute (cpm) of [^3H]-GP in phosphate buffered saline (PBS) (VWR International) with increasing concentrations of test compounds in at least triplicate for 15 min. At end of the assay time, the incubation solution was removed, and plates were washed three times (3×) with 100 μL of ice-cold PBS buffer. One-hundred fifty (150) […] of scintillation fluid (VWR International) was added to each well, and the radioactivity retained within the cells was measured on a 96-well scintillation counter. Background uptake ([^3H]-GP uptake in the presence of 10 mM non-radiolabeled gabapentin (GP)) (MedKoo) was subtracted and data were normalized to the DMSO control ([^3H]-GP uptake in the absence of any competitor). Data were fitted to the Michaelis-Menten equation using GraphPad Prism (Version 8.2.0).

LAT1, sequence (Q01650 whole entry): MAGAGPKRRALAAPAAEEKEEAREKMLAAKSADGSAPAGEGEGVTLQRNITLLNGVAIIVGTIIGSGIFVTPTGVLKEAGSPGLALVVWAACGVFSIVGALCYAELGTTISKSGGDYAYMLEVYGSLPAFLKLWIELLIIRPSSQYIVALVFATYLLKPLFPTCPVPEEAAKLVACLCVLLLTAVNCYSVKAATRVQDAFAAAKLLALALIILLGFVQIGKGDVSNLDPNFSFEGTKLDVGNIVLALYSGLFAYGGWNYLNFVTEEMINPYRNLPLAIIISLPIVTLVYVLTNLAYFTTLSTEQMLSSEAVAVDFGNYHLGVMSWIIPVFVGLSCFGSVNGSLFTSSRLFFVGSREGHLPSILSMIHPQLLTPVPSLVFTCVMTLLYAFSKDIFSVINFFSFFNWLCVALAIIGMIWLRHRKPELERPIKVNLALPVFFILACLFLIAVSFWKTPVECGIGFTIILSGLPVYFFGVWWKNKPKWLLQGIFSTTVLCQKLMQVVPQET
LAT1, sequence (P08195 whole entry partner): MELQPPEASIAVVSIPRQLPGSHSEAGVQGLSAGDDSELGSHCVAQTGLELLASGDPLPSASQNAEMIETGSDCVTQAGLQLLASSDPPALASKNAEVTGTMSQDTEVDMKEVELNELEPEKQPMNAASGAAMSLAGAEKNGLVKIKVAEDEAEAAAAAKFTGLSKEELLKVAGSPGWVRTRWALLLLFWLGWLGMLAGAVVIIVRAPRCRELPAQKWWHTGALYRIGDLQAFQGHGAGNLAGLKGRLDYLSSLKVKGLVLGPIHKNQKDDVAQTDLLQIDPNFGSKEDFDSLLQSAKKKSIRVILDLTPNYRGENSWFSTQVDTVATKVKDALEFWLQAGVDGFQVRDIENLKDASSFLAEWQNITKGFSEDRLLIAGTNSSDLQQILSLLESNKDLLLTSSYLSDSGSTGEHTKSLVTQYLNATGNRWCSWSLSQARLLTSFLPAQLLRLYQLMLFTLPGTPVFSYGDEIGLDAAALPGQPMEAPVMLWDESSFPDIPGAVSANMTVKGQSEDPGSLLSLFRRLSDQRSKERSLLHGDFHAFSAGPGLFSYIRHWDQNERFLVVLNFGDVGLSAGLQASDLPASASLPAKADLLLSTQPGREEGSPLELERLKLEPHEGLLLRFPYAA

| SMILES | IC50 |
| --- | --- |
| Cc1ccc(S(=O)(=O)N(c2ccc(C)c(C[C@H](N)C(=O)O)c2)S(=O)(=O)c2ccc(C)cc2)cc1 [Compound 48, (S)-2-Amino-3-(2-methyl-5-((4-methyl-N-tosylphenyl)sulfonamido)phenyl)propanoic Acid] | 0.1 to 1 µM |
| Cc1ccc(S(=O)(=O)Nc2cccc(S(=O)(=O)Nc3ccc(C)c(C[C@H](N)C(=O)O)c3)c2)cc1 [Compound 32, (S)-2-Amino-3-(2-methyl-5-((3-((4-methylphenyl)sulfonamido)phenyl)sulfonamido)phenyl)propanoic Acid] | 0.1 to 1 µM |
| CN(C)S(=O)(=O)c1cccc(C[C@H](N)C(=O)O)c1 [Compound 73, (S)-2-Amino-3-(3-(N,N-dimethylsulfamoyl)phenyl)propanoic Acid] | 1 to 10 µM |
| N[C@@H](Cc1ccc(S(=O)(=O)Nc2ccc(Cl)cc2)cc1)C(=O)O [Compound 80, (S)-2-Amino-3-(4-(N-(4-chlorophenyl)sulfamoyl)phenyl)propanoic Acid] | 1 to 10 µM |
| Cc1ccc(S(=O)(=O)NCc2ccc(C)c(C[C@H](N)C(=O)O)c2)cc1 [Compound 66, (S)-2-Amino-3-(2-methyl-5-(((4-methylphenyl)sulfonamido)methyl)phenyl)propanoic Acid] | 0.1 to 1 µM |
| Cc1ccc(CS(=O)(=O)Cc2ccccc2)cc1C[C@H](N)C(=O)O [Compound 56, (S)-2-Amino-3-(5-((benzylsulfonyl)methyl)-2-methylphenyl)propanoic Acid] | 0.1 to 1 µM |
| Cc1ccc(N(C)S(=O)(=O)c2cccc3c(N(C)C)cccc23)cc1C[C@H](N)C(=O)O [Compound 16, (S)-2-Amino-3-(5-((5-(dimethylamino)-N-methylnaphthalene)-1-sulfonamido)-2-methylphenyl)propanoic Acid] | 0.1 to 1 µM |
| Cc1ccc(S(=O)(=O)Nc2ccc(Cl)c(Cl)c2)cc1C[C@H](N)C(=O)O [Compound 83, (S)-2-Amino-3-(5-(N-(3,4-dichlorophenyl)sulfamoyl)-2-methylphenyl)propanoic Acid] | 0.1 to 1 µM |
| Cc1ccc(NS(=O)(=O)c2c(Cl)cccc2Cl)cc1C[C@H](N)C(=O)O [Compound 42, (S)-2-Amino-3-(5-((2,6-dichlorophenyl)sulfonamido)-2-methylphenyl)propanoic Acid] | 0.1 to 1 µM |
| Cc1ccc(NS(=O)(=O)c2cccc(N)c2)cc1C[C@H](N)C(=O)O [Compound 28, (S)-2-Amino-3-(5-((3-aminophenyl)sulfonamido)-2-methylphenyl)propanoic Acid] | 0.1 to 1 µM |
| Cc1ccc(SCc2ccccc2)cc1C[C@H](N)C(=O)O [Compound 59, (S)-2-Amino-3-(5-(benzylthio)-2-methylphenyl)propanoic Acid] | 0.1 to 1 µM |
| Cc1ccc(S(=O)(=O)Nc2ccc(S(=O)(=O)Nc3ccc(C)c(C[C@H](N)C(=O)O)c3)cc2)cc1 [Compound 33, (S)-2-Amino-3-(2-methyl-5-((4-((4-methylphenyl)sulfonamido)phenyl)sulfonamido)phenyl)propanoic Acid] | 0.1 to 1 µM |
| Cc1ccc(NS(=O)(=O)c2c(Cl)cc(C(F)(F)F)cc2Cl)cc1C[C@H](N)C(=O)O [Compound 36, (S)-2-Amino-3-(5-((2,6-dichloro-4-(trifluoromethyl)phenyl)sulfonamido)-2-methylphenyl)propanoic Acid] | 1 to 10 µM |
| N[C@@H](Cc1cc(Cl)c(NS(=O)(=O)c2ccccc2)c(Cl)c1)C(=O)O [Compound 47, (S)-2-Amino-3-(3,5-dichloro-4-(phenylsulfonamido)phenyl)propanoic Acid] | ≥ 10 µM |
| CC(C)c1ccc(NS(=O)(=O)c2cccc3c(N(C)C)cccc23)cc1C[C@@H](N)C(=O)O [Compound 34, (R)-2-Amino-3-(5-((5-(dimethylamino)naphthalene)-1-sulfonamido)-2-isopropylphenyl)propanoic Acid] | 1 to 10 µM |
| Cc1ccc(C[S+]([O-])Cc2ccccc2)cc1C[C@H](N)C(=O)O (stereo partly drawn) [Compound 60, (2S)-2-Amino-3-(5-((benzylsulfinyl)methyl)-2-methylphenyl)propanoic Acid] | 0.1 to 1 µM |
| COc1ccc(NS(=O)(=O)c2cccc3c(N(C)C)cccc23)cc1C[C@H](N)C(=O)O [Compound 5, (S)-2-Amino-3-(5-((5-(dimethylamino)naphthalene)-1-sulfonamido)-2-methoxyphenyl)propanoic Acid] | 0.1 to 1 µM |

| SMILES | IC50 |
| --- | --- |
| Cc1ccc(NS(=O)(=O)C2CC2)cc1C[C@H](N)C(=O)O [Compound 14, (S)-2-Amino-3-(5-(cyclopropanesulfonamido)-2-methylphenyl)propanoic Acid] | 1 to 10 µM |
| N[C@@H](Cc1ccc(S(N)(=O)=O)cc1)C(=O)O [Compound 74, (S)-2-Amino-3-(4-sulfamoylphenyl)propanoic acid] | ≥ 10 µM |
| Cc1ccc(S(=O)(=O)Nc2ccc(Cl)cc2)cc1C[C@@H](N)C(=O)O [Compound 51, (R)-2-Amino-3-(5-(N-(4-chlorophenyl)sulfamoyl)-2-methylphenyl)propanoic Acid] | ≥ 10 µM |
| Cc1ccc(NS(=O)(=O)C2CCOCC2)cc1C[C@H](N)C(=O)O [Compound 12, (S)-2-Amino-3-(2-methyl-5-((tetrahydro-2H-pyran)-4-sulfonamido)phenyl)propanoic Acid] | 1 to 10 µM |
| Cc1ccc(CNS(=O)(=O)Cc2ccccc2)cc1C[C@H](N)C(=O)O [Compound 54, (S)-2-Amino-3-(2-methyl-5-(((phenylmethyl)sulfonamido)methyl)phenyl)propanoic Acid] | 1 to 10 µM |
| CS(=O)(=O)Nc1ccc(C[C@H](N)C(=O)O)cc1 [Compound 70, (S)-2-Amino-3-(4-(methylsulfonamido)phenyl)propanoic Acid] | ≥ 10 µM |
| Cc1ccc(NS(=O)(=O)c2cccc3c(N(C)C)cccc23)cc1C[C@H](N)C(=O)O [Compound 2, (S)-2-Amino-3-(5-((5-(dimethylamino)naphthalene)-1-sulfonamido)-2-methylphenyl)propanoic Acid] | 0.1 to 1 µM |
| Cc1ccc(S(=O)(=O)Nc2ccc(C)c(C[C@H](N)C(=O)O)c2)cc1 [Compound 7, (S)-2-Amino-3-(2-methyl-5-((4-methylphenyl)sulfonamido)phenyl)propanoic Acid] | 0.1 to 1 µM |
| COc1cc(NS(=O)(=O)c2cccc3c(N(C)C)cccc23)ccc1C[C@H](N)C(=O)O [Compound 8, (S)-2-Amino-3-(4-((5-(dimethylamino)naphthalene)-1-sulfonamido)-2-methoxyphenyl)propanoic Acid] | 1 to 10 µM |
| N[C@@H](Cc1cccc(S(N)(=O)=O)c1)C(=O)O [Compound 71, (S)-2-Amino-3-(3-sulfamoylphenyl)propanoic Acid] | ≥ 10 µM |
| Cc1cc(S(=O)(=O)Nc2ccc(Cl)cc2)ccc1C[C@H](N)C(=O)O [Compound 85, (S)-2-Amino-3-(4-(N-(4-chlorophenyl)sulfamoyl)-2-methylphenyl)propanoic Acid] | 0.1 to 1 µM |
| CC(=O)Nc1ccc(S(=O)(=O)Nc2ccc(C)c(C[C@H](N)C(=O)O)c2)c2ccccc12 [Compound 13, (S)-3-(5-((4-Acetamidonaphthalene)-1-sulfonamido)-2-methylphenyl)-2-aminopropanoic Acid] | 1 to 10 µM |
| Cc1ccc(S(=O)(=O)Nc2cc(C[C@H](N)C(=O)O)cc(NS(=O)(=O)c3ccc(C)cc3)c2)cc1 [Compound 63, (S)-2-Amino-3-(3,5-bis((4-methylphenyl)sulfonamido)phenyl)propanoic Acid] | 1 to 10 µM |
| CN(C)c1cccc2c(S(=O)(=O)Nc3ccccc3C[C@H](N)C(=O)O)cccc12 [Compound 19, (S)-2-Amino-3-(2-((5-(dimethylamino)naphthalene)-1-sulfonamido)phenyl)propanoic Acid] | 0.1 to 1 µM |
| Cc1ccc(NS(=O)(=O)C[C@@]23CC[C@H](CC2=O)C3(C)C)cc1C[C@H](N)C(=O)O [Compound 22, (S)-2-Amino-3-(5-((((1R,4R)-7,7-dimethyl-2-oxobicyclo[2.2.1]heptan-1-yl)methyl)sulfonamido)-2-methylphenyl)propanoic Acid] | 1 to 10 µM |
| Cc1ccc(NS(=O)(=O)c2cccc3ccccc23)cc1C[C@H](N)C(=O)O [Compound 6, (S)-2-Amino-3-(2-methyl-5-(naphthalene-1-sulfonamido)phenyl)propanoic Acid] | 0.1 to 1 µM |

From US20250319046A1, “PHENYLALANINE-BASED LAT1 INHIBITORS AND USES THEREOF” (MAXYMUNE THERAPEUTICS, INC., priority 2024, published 2025)
